Molecular target: T1, recombinant human GR (Homo sapiens, UniProt P04150)
T1 construct: purchased Panvera/Invitrogen P2812 (kit P2893)
T1 sequence (P04150 1-777): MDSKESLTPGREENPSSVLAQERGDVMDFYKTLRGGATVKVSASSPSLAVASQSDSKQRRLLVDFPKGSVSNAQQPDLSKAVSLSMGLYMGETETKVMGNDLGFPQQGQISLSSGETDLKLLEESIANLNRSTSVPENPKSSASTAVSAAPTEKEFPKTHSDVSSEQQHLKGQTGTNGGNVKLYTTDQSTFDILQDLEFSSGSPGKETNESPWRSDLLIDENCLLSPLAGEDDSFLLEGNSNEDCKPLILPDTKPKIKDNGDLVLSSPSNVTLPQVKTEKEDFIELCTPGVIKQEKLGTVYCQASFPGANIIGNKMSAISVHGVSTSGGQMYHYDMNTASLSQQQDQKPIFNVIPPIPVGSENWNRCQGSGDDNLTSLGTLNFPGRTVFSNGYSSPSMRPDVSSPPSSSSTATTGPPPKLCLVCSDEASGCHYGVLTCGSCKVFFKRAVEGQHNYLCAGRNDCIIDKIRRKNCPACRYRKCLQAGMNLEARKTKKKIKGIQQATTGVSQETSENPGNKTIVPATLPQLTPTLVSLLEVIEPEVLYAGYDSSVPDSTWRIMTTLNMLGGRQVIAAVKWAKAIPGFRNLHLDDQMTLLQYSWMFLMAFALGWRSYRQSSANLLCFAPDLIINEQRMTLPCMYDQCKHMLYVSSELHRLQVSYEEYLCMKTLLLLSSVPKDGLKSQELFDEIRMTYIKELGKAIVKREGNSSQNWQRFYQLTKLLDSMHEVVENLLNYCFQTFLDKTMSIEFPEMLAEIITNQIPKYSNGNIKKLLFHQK
Test: Human Glucocorticoid Receptor (GR) Assay, fluorescence polarization
Format: binding
Settings: GS Red tracer, incubated 2 h at r.t., XLfit model 205, read-out: GRhuFL_FP_v2 Mean IC50
How it was run: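 After 2 h dark incubation at r.t., polarization reported displacement of the GS Red tracer from recombinant GR, in buffer with phosphate, molybdate, EDTA, DTT and Stabilizing Peptide. Controls: dexamethasone (100%) and DMSO (0%).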

Question: COc1cccc([C@@H](Oc2ccc3c(cnn3-c3ccc(Cl)cc3)c2)[C@H](C)NC(=O)C(F)(F)F)c1 [Example 126, N-((1R,2S)-1-(1-(4-chlorophenyl)-1H-indazol-5-yloxy)-1-(3-methoxyphenyl)propan-2-yl)-2,2,2-trifluoroacetamide] was tested. Which IC50 did it give?
Answer: 2.9 nM

Question: How did the IC50 turn out when CCc1cccc([C@@H](Oc2ccc3c(cnn3-c3ccc(F)cc3)c2)[C@H](C)NC(=O)CO)c1 [Example 23, N-[(1R,2S)-1-(3-ethylphenyl)-1-[1-(4-fluorophenyl)indazol-5-yl]oxy-propan-2-yl]-2-hydroxy-acetamide] was run?
Answer: 3.2 nM

Question: For CC(=O)N[C@@H](C)[C@H](Oc1cc2cnn(-c3ccc(F)cc3)c2cc1Cl)c1ccc(F)cc1 (single isomer, unassigned) [Example 101, N-[(1S*,2R*)-1-[6-chloro-1-(4-fluorophenyl)indazol-5-yl]oxy-1-(4-fluorophenyl)propan-2-yl]acetamide], which IC50 is on record?
Answer: 15 nM

Question: Cc1ccc([C@@H](Oc2ccc3c(cnn3-c3ccc(F)cc3)c2)[C@H](C)NC(=O)C(C)(C)C)c(C)c1 [Example 176, N-[(1R,2S)-1-(2,4-dimethylphenyl)-1-[1-(4-fluorophenyl)indazol-5-yl]oxy-propan-2-yl]-2,2-dimethyl-propanamide] was tested. Which IC50 did it give?
Answer: 4.9 nM

Question: For C[C@H](NC(=O)C(F)(F)F)[C@H](Oc1ccc2c(cnn2-c2ccc(F)cc2)c1)c1ccc2c(c1)OCC2 [Example 307, N-((1R,2S)-1-(2,3-dihydrobenzofuran-6-yl)-1-(1-(4-fluorophenyl)-1H-indazol-5-yloxy)propan-2-yl)-2,2,2-trifluoroacetamide], which IC50 is on record?
Answer: 4.8 nM

Question: Which IC50 does the source give for COc1cccc([C@@H](Oc2ccc3c(cnn3-c3ccc(F)cc3)c2)[C@H](C)NC(=O)c2sc(C(F)(F)F)cc2O)c1 [Example 298, N-[(1R,2S)-1-[1-(4-fluorophenyl)indazol-5-yl]oxy-1-(3-methoxyphenyl)propan-2-yl]-3-hydroxy-5-(trifluoromethyl)thiophene-2-carboxamide] here?
Answer: 15 nM

Question: With COc1ccc([C@@H](Oc2ccc3c(cnn3-c3ccc(F)cc3)c2)[C@H](C)NC(=O)C(C)(F)F)cc1F [Example 231, 2,2-difluoro-N-[(1R,2S)-1-(3-fluoro-4-methoxy-phenyl)-1-[1-(4-fluorophenyl)indazol-5-yl]oxy-propan-2-yl]propanamide] as the molecule, how does the IC50 read?
Answer: 5.1 nM

Question: How did the IC50 turn out when C[C@H](NC(=O)C(C)(C)C)[C@H](Oc1ccc2c(cnn2-c2ccc(F)cc2)c1)c1ccc2c(c1)OCO2 [Example 189, N-[(1R,2S)-1-benzo[1,3]dioxol-5-yl-1-[1-(4-fluorophenyl)indazol-5-yl]oxy-propan-2-yl]-2,2-dimethyl-propanamide] was run?
Answer: 7.8 nM

Question: C[C@H](NC(=O)C1(C)CC1)[C@H](Oc1ccc2c(cnn2-c2ccc(F)cc2)c1)c1cccc(F)c1 [Example 214, N-[(1R,2S)-1-(3-fluorophenyl)-1-[1-(4-fluorophenyl)indazol-5-yl]oxy-propan-2-yl]-1-methyl-cyclopropane-1-carboxamide] was tested. Which IC50 did it give?
Answer: 4.5 nM

Question: Which IC50 does the source give for COc1ccc(F)cc1[C@@H](Oc1ccc2c(cnn2-c2ccc(F)cc2)c1)[C@H](C)NC(=O)C(C)(C)C [Example 181, N-[(1R,2S)-1-(5-fluoro-2-methoxy-phenyl)-1-[1-(4-fluorophenyl)indazol-5-yl]oxy-propan-2-yl]-2,2-dimethyl-propanamide] here?
Answer: 3.2 nM

Question: Cc1cnc(C(=O)N[C@@H](C)[C@H](Oc2ccc3c(cnn3-c3ccc(F)cc3)c2)c2ccc3c(c2)OCO3)s1 [Example 210, N-[(1R,2S)-1-benzo[1,3]dioxol-5-yl-1-[1-(4-fluorophenyl)indazol-5-yl]oxy-propan-2-yl]-5-methyl-1,3-thiazole-2-carboxamide] was tested. Which IC50 did it give?
Answer: 5.2 nM

Question: How did the IC50 turn out when C[C@H](NC(=O)C(Cl)Cl)[C@H](Oc1ccc2c(cnn2-c2ccc(F)cc2)c1)c1ccccc1 [Example 39, 2,2-Dichloro-N-[(1R,2S)-1-[1-(4-fluorophenyl)indazol-5-yl]oxy-1-phenyl-propan-2-yl]acetamide] was run?
Answer: 6.4 nM

Question: For COc1cccc([C@@H](Oc2ccc3c(cnn3-c3ccc(F)cc3)c2)[C@H](C)NC(=O)c2ccon2)c1 [Example 280, N-[(1R,2S)-1-[1-(4-fluorophenyl)indazol-5-yl]oxy-1-(3-methoxyphenyl)propan-2-yl]1,2-oxazole-3-carboxamide], which IC50 is on record?
Answer: 3.6 nM

Question: Which IC50 does the source give for COc1cccc([C@@H](Oc2ccc3c(cnn3-c3ccc(F)cc3)c2)[C@H](C)NC(=O)c2cc3ccccc3s2)c1 [Example 296, N-[(1R,2S)-1-[1-(4-fluorophenyl)indazol-5-yl]oxy-1-(3-methoxyphenyl)propan-2-yl]benzothiophene-2-carboxamide] here?
Answer: 4 nM

Question: COc1c(C)cc([C@@H](Oc2ccc3c(cnn3-c3ccc(F)cc3)c2)[C@H](C)NC(=O)C(C)(C)C)cc1C [Example 182, N-[(1R,2S)-1-[1-(4-fluorophenyl)indazol-5-yl]oxy-1-(4-methoxy-3,5-dimethyl-phenyl)propan-2-yl]-2,2-dimethyl-propanamide] was tested. Which IC50 did it give?
Answer: 5.5 nM

Question: How did the IC50 turn out when Cc1cc(C)c([C@@H](Oc2ccc3c(cnn3-c3ccc(F)cc3)c2)[C@H](C)NC(=O)C(F)(F)F)cc1C [Example 162, 2,2,2-trifluoro-N-[(1R,2S)-1-[1-(4-fluorophenyl)indazol-5-yl]oxy-1-(2,4,5-trimethylphenyl)propan-2-yl]acetamide] was run?
Answer: 14 nM

Question: Which IC50 does the source give for C[C@H](NC(=O)C(F)(F)F)[C@H](Oc1ccc2c(cnn2-c2ccc(F)cc2)c1)c1ccc(F)c(F)c1 [Example 150, N-[(1R,2S)-1-(3,4-difluorophenyl)-1-[1-(4-fluorophenyl)indazol-5-yl]oxy-propan-2-yl]-2,2,2-trifluoro-acetamide] here?
Answer: 4.6 nM

Question: With C[C@H](NC(=O)C(C)(C)C)[C@H](Oc1ccc2c(cnn2-c2ccc(F)cc2)c1)c1ccc(F)c(F)c1 [Example 172, N-[(1R,2S)-1-(3,4-difluorophenyl)-1-[1-(4-fluorophenyl)indazol-5-yl]oxy-propan-2-yl]-2,2-dimethyl-propanamide] as the molecule, how does the IC50 read?
Answer: 4.3 nM

Question: With Cc1ccc([C@@H](Oc2ccc3c(cnn3-c3ccc(F)cc3)c2)[C@H](C)NC(=O)C(C)(F)F)cc1F [Example 229, 2,2-difluoro-N-[(1R,2S)-1-(3-fluoro-4-methyl-phenyl)-1-[1-(4-fluorophenyl)indazol-5-yl]oxy-propan-2-yl]propanamide] as the molecule, how does the IC50 read?
Answer: 5.5 nM

Question: For CCC[C@H](NC(=O)CO)[C@H](Oc1ccc2c(cnn2-c2ccc(F)cc2)c1)c1cccc(OC)c1 [Example 93, N-((1R,2S)-1-(1-(4-fluorophenyl)-1H-indazol-5-yloxy)-1-(3-methoxyphenyl)pentan-2-yl)-2-hydroxyacetamide], which IC50 is on record?
Answer: 3.7 nM

Question: With C[C@H](NC(=O)CO)[C@H](Oc1ccc2c(cnn2-c2ccc(F)cc2)c1)c1ccc2ccccc2c1 [Example 21, N-[(1R,2S)-1-[1-(4-fluorophenyl)indazol-5-yl]oxy-1-naphthalen-2-yl-propan-2-yl]-2-hydroxy-acetamide] as the molecule, how does the IC50 read?
Answer: 3.2 nM

Question: COCC(=O)N[C@@H](CC(C)C)[C@H](Oc1ccc2c(cnn2-c2ccc(F)cc2)c1)c1cccc(F)c1 [Example 109, N-{(1S)-1-[(R)-(3-Fluorophenyl)-{[1-(4-fluorophenyl)-1H-indazole-5-yl]oxy}methyl]-3-methyl-butyl}-2-methoxyacetamide] was tested. Which IC50 did it give?
Answer: 23 nM

Question: Cc1cnc(C(=O)N[C@@H](C)[C@H](Oc2ccc3c(cnn3-c3ccc(F)cc3)c2)c2cc(F)cc(Cl)c2)s1 [Example 205, N-[(1R,2S)-1-(3-chloro-5-fluoro-phenyl)-1-[1-(4-fluorophenyl)indazol-5-yl]oxy-propan-2-yl]-5-methyl-1,3-thiazole-2-carboxamide] was tested. Which IC50 did it give?
Answer: 6.6 nM

Question: C[C@H](NC(=O)C(F)(F)F)[C@H](Oc1ccc2c(cnn2-c2ccc(F)cc2)c1)c1ccc(SC2CC2)cc1 [Example 15, N-[(1R,2S)-1-(4-cyclopropylsulfanylphenyl)-1-[1-(4-fluorophenyl)indazol-5-yl]oxy-propan-2-yl]-2,2,2-trifluoro-acetamide] was tested. Which IC50 did it give?
Answer: 6.8 nM

Question: For COCC(=O)N[C@@H](C)[C@H](Oc1ccc2c(cnn2-c2ccc(F)cc2)c1)c1cc(C)ccc1C [Example 260, N-[(1R,2S)-1-(2,5-dimethylphenyl)-1-[1-(4-fluorophenyl)indazol-5-yl]oxy-propan-2-yl]-2-methoxy-acetamide], which IC50 is on record?
Answer: 14 nM

Question: With C[C@H](NC(=O)C(C)(C)C)[C@H](Oc1ccc2c(cnn2-c2ccc(F)cc2)c1)c1ccccc1Cl [Example 300, N-((1R,2S)-1-(2-chlorophenyl)-1-(1-(4-fluorophenyl)-1H-indazol-5-yloxy)propan-2-yl)pivalamide] as the molecule, how does the IC50 read?
Answer: 2.4 nM

Reference: patent publication US8143290B2, “Chemical compounds 572” (AstraZeneca AB, priority 2006, dated 2012)
